We go through nine compounds from US10829484B2, “Compounds and methods for kinase modulation, and indications therefor” (Plexxikon Inc., priority 2015, dated 2020).

Read-outs that look alike come from different tables or passages of the source.

This test has as its target T1, BaF3-FLT3-ITD-D835V (Homo sapiens, UniProt P36888, INS600HVDFREYEYD/D835V, cells depend on it).
T1 sequence (P36888 with tags, fused parts or gaps INS600HVDFREYEYD/D835V): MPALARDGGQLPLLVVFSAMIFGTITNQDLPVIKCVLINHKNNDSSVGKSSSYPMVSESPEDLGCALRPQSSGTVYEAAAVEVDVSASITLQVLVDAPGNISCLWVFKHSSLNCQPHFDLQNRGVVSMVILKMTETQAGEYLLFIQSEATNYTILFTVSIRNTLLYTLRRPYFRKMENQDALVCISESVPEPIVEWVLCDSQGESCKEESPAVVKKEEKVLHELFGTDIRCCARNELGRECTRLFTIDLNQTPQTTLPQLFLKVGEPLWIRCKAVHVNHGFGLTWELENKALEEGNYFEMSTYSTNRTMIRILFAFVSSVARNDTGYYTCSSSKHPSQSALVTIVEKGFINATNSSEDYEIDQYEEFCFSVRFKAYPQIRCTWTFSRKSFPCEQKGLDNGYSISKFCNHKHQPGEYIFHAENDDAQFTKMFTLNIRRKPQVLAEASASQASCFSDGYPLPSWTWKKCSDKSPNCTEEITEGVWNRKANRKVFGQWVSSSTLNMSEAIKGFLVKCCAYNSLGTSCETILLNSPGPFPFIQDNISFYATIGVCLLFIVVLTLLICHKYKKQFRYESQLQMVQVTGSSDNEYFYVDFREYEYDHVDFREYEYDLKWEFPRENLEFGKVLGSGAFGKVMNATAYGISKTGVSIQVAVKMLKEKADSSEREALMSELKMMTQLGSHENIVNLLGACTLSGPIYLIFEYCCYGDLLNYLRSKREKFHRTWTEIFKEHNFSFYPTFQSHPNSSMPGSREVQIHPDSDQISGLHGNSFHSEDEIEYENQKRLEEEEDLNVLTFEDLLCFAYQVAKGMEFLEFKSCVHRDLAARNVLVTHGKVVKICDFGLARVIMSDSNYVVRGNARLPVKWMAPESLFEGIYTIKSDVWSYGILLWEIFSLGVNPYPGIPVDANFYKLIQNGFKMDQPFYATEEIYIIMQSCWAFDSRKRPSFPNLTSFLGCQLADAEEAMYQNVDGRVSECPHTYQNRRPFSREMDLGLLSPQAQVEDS
Put plainly: CTB viability assay CS0048, BaF3-FLT3-ITD-D835V. The class given is cell-based, murine. The conditions noted are these: CellTiter Blue viability, 72 hours. The essentials:
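Murine Ba/F3 cells made IL-3-independent by retroviral human FLT3-ITD (MV4-11 ITD), ±F691L or D835V, serum-starved overnight in 0.5% FBS. 3-fold compound dilutions applied 72 h at 37° C; viability by CellTiter Blue fluorescence (ex 560/em 590 nm), normalized to DMSO, IC50 from duplicate plates.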
On the technique in general: The colour change of resazurin is a common sign of viable cells or microbes.

The mark [1] stands for this setting: BaF3-FLT3-ITD-D835V cells, read-out: Cell Assay: CS0048: BaF3-FLT3-ITD-D835V CTB:IC50.
The mark [2] stands for this setting: Table 4, compounds from WO 2011/022473, read-out: Cell Assay: CS0048: BaF3-FLT3-ITD-D835V CTB: IC50.
[3] abbreviates: Table 3, read-out: Cell Assay: CS0048: BaF3-FLT3-ITD-D835V CTB: IC50.

As for `Cc1nn(C)c(C)c1Nc1ncc(-c2ccc(CC(=O)Nc3cc(C4(C(F)(F)F)CC4)on3)c(F)c2)cn1` [P-029, 2-[2-fluoro-4-[2-[(l,3,5-trimethylpyrazol-4-yl)amino]pyrimidin-5-yl]phenyl]-N-[5-[1-(trifluoromethyl)cyclopropyl]isoxazol-3-yl]acetamide], the GI50 under setting [1] fell in the range of 0.01 to 0.05 µM. As for `CC(C)(c1cc(NC(=O)Cc2ccc(-c3ccc(NCCN4CCOCC4)nc3)cc2)no1)C(F)(F)F` [reference compound], the GI50 under setting [2] came out at 0.145 µM. On the same count and under the same terms, as for `CCNc1ccc(-c2ccc(CC(=O)Nc3cc(C(C)(C)C)on3)cc2)cn1` [reference compound], the figure is 0.0942 µM. Same read-out and setting: as for `CC(C)(C)c1cc(NC(=O)Nc2ccc(-c3cnc(NC4CCOCC4)nc3)cn2)no1` [reference compound], the figure is 0.673 µM; as for `CC(C)(C)c1cc(NC(=O)Nc2ccc(-c3cnc(NC4CC4)nc3)cn2)no1` [reference compound], 0.585 µM.

As for `O=C(O)Cn1cc(Nc2ncc(-c3ccc(CC(=O)Nc4cc(C5(C(F)(F)F)CC5)on4)c(F)c3)cn2)cn1` [P-078, 2-[4-[[5-[3-fluoro-4-[2-oxo-2-[[5-[1-(trifluoromethyl)cyclopropyl]isoxazol-3-yl]amino]ethyl]phenyl]pyrimidin-2-yl]amino]pyrazol-1-yl]acetic acid], under setting [1], the GI50 lay within 0.05 to 0.1 µM.

In the case of `CNc1ccc(-c2ccc(CC(=O)Nc3cc(C(C)(C)C)on3)cc2)cn1` [reference compound], the GI50 under setting [2] came out at 0.092 µM.

Consider `O=C(Cc1ccc(-c2cnc(Nc3ccccc3)nc2)cc1F)Nc1cc(C2(C(F)(F)F)CC2)on1`, for which the GI50 under setting [3] is 0.000772 µM. Still for that read-out and setting: the figure for `Cn1cc(Nc2ncc(-c3ccc(CC(=O)Nc4cc(C5(C(F)(F)F)CC5)on4)c(F)c3)cn2)cn1` is 0.000259 µM.
